System: OVCAR-8 complex spheroid, growth inhibition
Experiment: Anticancer human tumor OVCAR-8 cell line growth inhibition [Asc];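 also: spheroids exposed to agents for 7 days before readout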;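 as to viability, T/C: percent viability relative to DMSO vehicle wells taken as 100%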
Details: for IC50: curve of first compound; for viability, T/C: stronger effect = lower value
Method in brief: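 Tumor cells were grown as complex spheroids with human endothelial cells (HUVEC) and human mesenchymal stem cells as stroma. Agents were tested alone and in combination, in half-log steps down from the clinical Cmax, or from 10 microM where Cmax was unknown.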

[1] = second compound 0.00316 µM, first compound 0.00316 µM
[2] = second compound 0.00316 µM, first compound 0.01 µM
[3] = second compound 0.00316 µM, first compound 0.0316 µM
[4] = second compound 0.00316 µM, first compound 0.1 µM
[5] = second compound 0.01 µM, first compound 0.00316 µM
[6] = second compound 0.01 µM, first compound 0.01 µM
[7] = second compound 0.01 µM, first compound 0.0316 µM
[8] = second compound 0.01 µM, first compound 0.1 µM
[9] = second compound 0.0316 µM, first compound 0.00316 µM
[10] = second compound 0.0316 µM, first compound 0.01 µM
[11] = second compound 0.0316 µM, first compound 0.0316 µM
[12] = second compound 0.0316 µM, first compound 0.1 µM
[13] = second compound 0.1 µM, first compound 0.00316 µM
[14] = second compound 0.1 µM, first compound 0.01 µM
[15] = second compound 0.1 µM, first compound 0.0316 µM
[16] = second compound 0.1 µM, first compound 0.1 µM
[17] = second compound 0.316 µM, first compound 0.00316 µM
[18] = second compound 0.316 µM, first compound 0.01 µM
[19] = second compound 0.316 µM, first compound 0.0316 µM
[20] = second compound 0.316 µM, first compound 0.1 µM
[21] = second compound 1 µM, first compound 0.00316 µM
[22] = second compound 1 µM, first compound 0.01 µM
[23] = second compound 1 µM, first compound 0.0316 µM
[24] = second compound 1 µM, first compound 0.1 µM
[25] = second compound 0.00316 µM, first compound 0.316 µM
[26] = second compound 0.00316 µM, first compound 1 µM
[27] = second compound 0.01 µM, first compound 0.316 µM
[28] = second compound 0.01 µM, first compound 1 µM
[29] = second compound 0.0316 µM, first compound 0.316 µM
[30] = second compound 0.0316 µM, first compound 1 µM
[31] = second compound 0.1 µM, first compound 0.316 µM
[32] = second compound 0.1 µM, first compound 1 µM
[33] = second compound 0.316 µM, first compound 0.316 µM
[34] = second compound 0.316 µM, first compound 1 µM
[35] = second compound 1 µM, first compound 0.316 µM
[36] = second compound 1 µM, first compound 1 µM

Cn1ncnc1[C@H]1c2n[nH]c(=O)c3cc(F)cc(c23)N[C@@H]1c1ccc(F)cc1 + CNC(C)C(=O)NC1CN(S(=O)(=O)c2cccc(S(=O)(=O)N3CCC4CCC(C(=O)NC(c5ccccc5)c5ccccc5)N4C(=O)C(NC(=O)C(C)NC)C3)c2)CCC2CCC(C(=O)NC(c3ccccc3)c3ccccc3)N2C1=O
IC50 (second compound 0.00316 µM): < 0.316 nM
IC50 (second compound 0.01 µM): > 100 nM
IC50 (second compound 0.0316 µM): > 100 nM
IC50 (second compound 0.1 µM): > 100 nM
IC50 (second compound 0.316 µM): > 100 nM
IC50 (second compound 1 µM): > 100 nM
viability, T/C (second compound 0.00316 µM, first compound 0.000316 µM): 1.94%
viability, T/C (second compound 0.00316 µM, first compound 0.001 µM): 1.14%
viability, T/C [1]: 0.66%
viability, T/C [2]: 1.15%
viability, T/C [3]: 0.71%
viability, T/C [4]: 0.74%
viability, T/C (second compound 0.01 µM, first compound 0.000316 µM): 106%
viability, T/C (second compound 0.01 µM, first compound 0.001 µM): 100%
viability, T/C [5]: 102%
viability, T/C [6]: 109%
viability, T/C [7]: 104%
viability, T/C [8]: 120%
viability, T/C (second compound 0.0316 µM, first compound 0.000316 µM): 91.7%
viability, T/C (second compound 0.0316 µM, first compound 0.001 µM): 106%
viability, T/C [9]: 91.9%
viability, T/C [10]: 97.1%
viability, T/C [11]: 99.9%
viability, T/C [12]: 95.5%
viability, T/C (second compound 0.1 µM, first compound 0.000316 µM): 106%
viability, T/C (second compound 0.1 µM, first compound 0.001 µM): 101%
viability, T/C [13]: 87.2%
viability, T/C [14]: 95.1%
viability, T/C [15]: 98.9%
viability, T/C [16]: 94.6%
viability, T/C (second compound 0.316 µM, first compound 0.000316 µM): 76.5%
viability, T/C (second compound 0.316 µM, first compound 0.001 µM): 79.7%
viability, T/C [17]: 84.5%
viability, T/C [18]: 107%
viability, T/C [19]: 97.6%
viability, T/C [20]: 85.4%
viability, T/C (second compound 1 µM, first compound 0.000316 µM): 69.5%
viability, T/C (second compound 1 µM, first compound 0.001 µM): 81.3%
viability, T/C [21]: 94.9%
viability, T/C [22]: 86.4%
viability, T/C [23]: 96.2%
viability, T/C [24]: 95.5%

O=C(c1cc(Cc2n[nH]c(=O)c3ccccc23)ccc1F)N1CCN(C(=O)C2CC2)CC1 + CNC(C)C(=O)NC1CN(S(=O)(=O)c2cccc(S(=O)(=O)N3CCC4CCC(C(=O)NC(c5ccccc5)c5ccccc5)N4C(=O)C(NC(=O)C(C)NC)C3)c2)CCC2CCC(C(=O)NC(c3ccccc3)c3ccccc3)N2C1=O
IC50 (second compound 0.00316 µM): < 31.6 nM
IC50 (second compound 0.01 µM): > 10000 nM
IC50 (second compound 0.0316 µM): > 10000 nM
IC50 (second compound 0.1 µM): > 10000 nM
IC50 (second compound 0.316 µM): 9900 nM
IC50 (second compound 1 µM): 6840 nM
viability, T/C [3]: 0.81%
viability, T/C [4]: 1.08%
viability, T/C [25]: 0.69%
viability, T/C [26]: 1.07%
viability, T/C (second compound 0.00316 µM, first compound 3.16 µM): 1.9%
viability, T/C (second compound 0.00316 µM, first compound 10 µM): 0.51%
viability, T/C [7]: 111%
viability, T/C [8]: 102%
viability, T/C [27]: 101%
viability, T/C [28]: 110%
viability, T/C (second compound 0.01 µM, first compound 3.16 µM): 112%
viability, T/C (second compound 0.01 µM, first compound 10 µM): 79.2%
viability, T/C [11]: 94%
viability, T/C [12]: 99.3%
viability, T/C [29]: 101%
viability, T/C [30]: 94.7%
viability, T/C (second compound 0.0316 µM, first compound 3.16 µM): 103%
viability, T/C (second compound 0.0316 µM, first compound 10 µM): 87%
viability, T/C [15]: 80.3%
viability, T/C [16]: 86.4%
viability, T/C [31]: 88.6%
viability, T/C [32]: 101%
viability, T/C (second compound 0.1 µM, first compound 3.16 µM): 83.9%
viability, T/C (second compound 0.1 µM, first compound 10 µM): 79.1%
viability, T/C [19]: 83.7%
viability, T/C [20]: 100%
viability, T/C [33]: 90.4%
viability, T/C [34]: 82.4%
viability, T/C (second compound 0.316 µM, first compound 3.16 µM): 90.9%
viability, T/C (second compound 0.316 µM, first compound 10 µM): 49.7%
viability, T/C [23]: 79.2%
viability, T/C [24]: 90.7%
viability, T/C [35]: 99.5%
viability, T/C [36]: 90.3%
viability, T/C (second compound 1 µM, first compound 3.16 µM): 92.5%
viability, T/C (second compound 1 µM, first compound 10 µM): 29.8%

O=C(c1ccc(F)c(F)c1Nc1ccc(I)cc1F)N1CC(O)([C@@H]2CCCCN2)C1 + CNC(C)C(=O)NC1CN(S(=O)(=O)c2cccc(S(=O)(=O)N3CCC4CCC(C(=O)NC(c5ccccc5)c5ccccc5)N4C(=O)C(NC(=O)C(C)NC)C3)c2)CCC2CCC(C(=O)NC(c3ccccc3)c3ccccc3)N2C1=O
IC50 (second compound 0.00316 µM): > 1000 nM
IC50 (second compound 0.01 µM): > 1000 nM
IC50 (second compound 0.0316 µM): 969 nM
IC50 (second compound 0.1 µM): 641 nM
IC50 (second compound 0.316 µM): 548 nM
IC50 (second compound 1 µM): 508 nM
viability, T/C [1]: 113%
viability, T/C [2]: 97%
viability, T/C [3]: 153%
viability, T/C [4]: 166%
viability, T/C [25]: 232%
viability, T/C [26]: 84.5%
viability, T/C [5]: 97.3%
viability, T/C [6]: 101%
viability, T/C [7]: 146%
viability, T/C [8]: 185%
viability, T/C [27]: 223%
viability, T/C [28]: 98.7%
viability, T/C [9]: 95.2%
viability, T/C [10]: 99.8%
viability, T/C [11]: 116%
viability, T/C [12]: 163%
viability, T/C [29]: 216%
viability, T/C [30]: 47.5%
viability, T/C [13]: 82.3%
viability, T/C [14]: 82.2%
viability, T/C [15]: 118%
viability, T/C [16]: 168%
viability, T/C [31]: 153%
viability, T/C [32]: 5.38%
viability, T/C [17]: 70.8%
viability, T/C [18]: 80.3%
viability, T/C [19]: 90.4%
viability, T/C [20]: 120%
viability, T/C [33]: 108%
viability, T/C [34]: 2.09%
viability, T/C [21]: 76.4%
viability, T/C [22]: 94.9%
viability, T/C [23]: 101%
viability, T/C [24]: 106%
viability, T/C [35]: 83.9%
viability, T/C [36]: 1.27%
